Measured values from paper PMC3544981 (Pharmacology, biochemistry, and behavior, 2012).
Several values for one entry are separate records, joined by “and”; a condition that tells them apart may be missing. Equal values may be shown once. Read-outs that look alike come from different tables or passages of the source.

Assays:
[1] = target: T1, α4β2*-nAChRs (Mus musculus, UniProt O70174+Q9ERK7, V287L); assay type: biochemical
[2] = target: T2, α4β2*-nAChRs (Mus musculus, UniProt O70174+Q9ERK7); assay type: biochemical
[3] = test system: α4S248F mutation; conditions: 2007, cited from earlier work
[4] = target: α4β2*-nAChR (Mus musculus, UniProt O70174+Q9ERK7); assay type: biochemical
[5] = target: α6β2*-nAChR (Mus musculus, UniProt Q9ERK7+Q9R0W9)
[6] = target: α6β2*-nAChR (Mus musculus, UniProt Q9ERK7+Q9R0W9, V287L); conditions: striatum, MT mice
[7] = target: T1, α4β2*-nAChRs
[8] = target: T2, α4β2*-nAChRs
[9] = target: T3, α4β2*-nAChR binding sites (Mus musculus, UniProt O70174+Q9ERK7, V287L); assay: [125I]-Epibatidine binding to membrane fragments, thalamus; conditions: read-out: Kd for [125I]-epibatidine, MT mice
[10] = target: T4, α4β2*-nAChR binding sites (Mus musculus, UniProt O70174+Q9ERK7); assay: as above; conditions: read-out: Kd for [125I]-epibatidine, WT mice
[11] = target: α4β2*-nAChR binding sites; assay: as above; parameters: species or system mouse; conditions: read-out: Kd for [125I]-epibatidine, HT mice
[12] = target: T3, α4β2*-nAChR binding sites; assay: [125I]-Epibatidine binding to membrane fragments, cortex; conditions: read-out: Kd for [125I]-epibatidine, MT mice
[13] = target: T4, α4β2*-nAChR binding sites; assay: as above; conditions: read-out: Kd for [125I]-epibatidine, WT mice
[14] = target: α4β2*-nAChR binding sites; assay: as above; parameters: species or system mouse; conditions: read-out: Kd for [125I]-epibatidine, HT mice
[15] = test system: β2VL mice; conditions: male, mouse, in vivo, ip, 2 mg/kg
[16] = test system: β2VL mice; conditions: mouse, in vivo, ip, 5 mg/kg
[17] = β2VL knock-in, homozygous mutant (MT)

T4 sequence (Q9ERK7 26-501): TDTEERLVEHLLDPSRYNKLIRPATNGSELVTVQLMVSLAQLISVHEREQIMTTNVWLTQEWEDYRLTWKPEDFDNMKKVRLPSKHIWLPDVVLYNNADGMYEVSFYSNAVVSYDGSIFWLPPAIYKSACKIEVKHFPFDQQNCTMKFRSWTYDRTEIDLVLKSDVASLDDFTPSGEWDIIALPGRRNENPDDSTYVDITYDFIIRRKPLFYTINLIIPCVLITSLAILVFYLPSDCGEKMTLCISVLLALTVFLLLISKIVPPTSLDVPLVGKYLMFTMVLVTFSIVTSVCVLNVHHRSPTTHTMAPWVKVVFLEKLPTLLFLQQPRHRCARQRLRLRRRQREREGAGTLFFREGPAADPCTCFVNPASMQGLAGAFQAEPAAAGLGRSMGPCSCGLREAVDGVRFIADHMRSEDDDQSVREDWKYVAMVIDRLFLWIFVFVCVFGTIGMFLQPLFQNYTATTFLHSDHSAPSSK
T4 sequence (O70174 31-629): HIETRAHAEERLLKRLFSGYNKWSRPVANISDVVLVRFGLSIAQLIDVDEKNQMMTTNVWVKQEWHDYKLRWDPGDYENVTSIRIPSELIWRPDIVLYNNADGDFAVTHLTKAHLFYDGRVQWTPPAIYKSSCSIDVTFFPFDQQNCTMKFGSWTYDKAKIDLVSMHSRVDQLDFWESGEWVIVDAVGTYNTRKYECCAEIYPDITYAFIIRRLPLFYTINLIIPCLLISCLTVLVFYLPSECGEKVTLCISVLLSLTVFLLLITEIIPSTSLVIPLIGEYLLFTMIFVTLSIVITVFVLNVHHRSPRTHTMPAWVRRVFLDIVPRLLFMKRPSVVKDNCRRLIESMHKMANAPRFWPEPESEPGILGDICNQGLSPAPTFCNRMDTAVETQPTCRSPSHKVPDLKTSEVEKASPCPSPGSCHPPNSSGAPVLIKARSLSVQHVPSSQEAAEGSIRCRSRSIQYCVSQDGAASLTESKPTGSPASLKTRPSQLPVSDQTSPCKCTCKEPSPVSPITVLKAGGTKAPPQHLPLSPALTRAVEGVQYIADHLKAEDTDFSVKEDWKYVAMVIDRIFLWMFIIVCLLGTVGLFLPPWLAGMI
T1 sequence (O70174 31-629): as above
T1 sequence (Q9ERK7 26-501 V287L): as the sequence (Q9ERK7 26-501) above, with V262L counted along it
T3 sequence (O70174 31-629): as the sequence (O70174 31-629) above
T3 sequence (Q9ERK7 26-501 V287L): as the sequence (Q9ERK7 26-501) above, with V262L counted along it
Sequence of α4β2*-nAChR (O70174 31-629): as the sequence (O70174 31-629) above
Sequence of α4β2*-nAChR (Q9ERK7 26-501): as the sequence (Q9ERK7 26-501) above
Sequence of α6β2*-nAChR (Mus musculus, UniProt Q9ERK7+Q9R0W9, V287L) (Q9R0W9 31-494): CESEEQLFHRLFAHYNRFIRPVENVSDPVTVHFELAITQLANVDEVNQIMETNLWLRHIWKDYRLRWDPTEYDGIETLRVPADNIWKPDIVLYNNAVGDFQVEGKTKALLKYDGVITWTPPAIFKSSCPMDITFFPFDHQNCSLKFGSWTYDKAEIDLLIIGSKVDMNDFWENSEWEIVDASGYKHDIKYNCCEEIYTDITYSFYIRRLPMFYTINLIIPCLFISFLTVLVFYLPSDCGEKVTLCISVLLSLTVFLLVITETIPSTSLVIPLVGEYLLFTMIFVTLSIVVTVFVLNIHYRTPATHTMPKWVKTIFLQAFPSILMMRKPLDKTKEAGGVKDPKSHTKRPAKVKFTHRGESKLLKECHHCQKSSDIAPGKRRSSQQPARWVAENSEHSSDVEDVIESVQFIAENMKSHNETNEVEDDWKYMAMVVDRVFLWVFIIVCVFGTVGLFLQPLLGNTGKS
Sequence of α6β2*-nAChR (Mus musculus, UniProt Q9ERK7+Q9R0W9, V287L) (Q9ERK7 26-501 V287L): as the sequence (Q9ERK7 26-501) above, with V262L counted along it

CC(=O)OCC[N+](C)(C)C [ACh, acetylcholine iodide]
maximum ACh-stimulated [3H]-GABA release [1]: 2.64±0.13
maximum ACh-stimulated [3H]-GABA release [2]: 3.31±0.24 and 3.69±0.19
reduction in maximal ACh-stimulated [3H]-GABA release [2]: 20%
decrease in maximal ACh-stimulated [3H]-GABA release ([3]; α4S248F HT mice ref Teper et al.): 60%
decrease in maximal ACh-stimulated [3H]-GABA release ([3]; α4S248F MT mice ref Teper et al.): 80%
control ACh-stimulated 86Rb+ efflux [4]: 5.64±1.43 and 3.35±0.47
decrease in the α-CtxMII sensitive [3H]-dopamine release [5]: 23%
α-CtxMII-sensitive maximal [3H]-dopamine release [5]: 3.31±0.30
α-CtxMII-sensitive maximal [3H]-dopamine release ([5]; striatum, WT mice): 4.82±0.30
α-CtxMII-sensitive maximal [3H]-dopamine release [6]: 3.73±0.29
maximum ACh-stimulated [3H]-GABA release [7]: 2.11±0.14
decrease in EC50, ACh-stimulated [3H]-GABA release [8]: approximately 10 fold
maximum ACh-stimulated [3H]-GABA release [8]: 1.96±0.17 and 2.25±0.16
reduction in maximal ACh-stimulated [3H]-GABA release [8]: 0%

Ic1ccc(C2CC3CCC2N3)cn1 (stereo not shown) [[^125I]-epibatidine]
Kd [9]: 0.11 ± 0.03 nM
Kd [10]: 0.15 ± 0.06 nM
Kd [11]: 0.08 ± 0.01 nM
Kd [12]: 0.13 ± 0.02 nM
Kd [13]: 0.15 ± 0.03 nM
Kd [14]: 0.12 ± 0.02 nM

CN1CCC[C@H]1c1cccnc1 [nicotine]
mice displaying diagonal retrograde tail [15]: 2/19
mice displaying tonic forelimb digit splaying [15]: 1/19
mice displaying tonic forelimb extension [15]: 1/19
mice exhibiting forelimb clonus [15]: 0/19
post-injection latency for onset of diagonal retrograde tail [15]: 31 ± 8 s
mice displaying diagonal retrograde tail [15, 17]: 19/19
mice displaying tonic forelimb digit splaying [15, 17]: 16/19
mice displaying tonic forelimb extension [15, 17]: 18/19
mice exhibiting forelimb clonus [15, 17]: 12/19
post-injection latency for onset of forelimb clonus [15, 17]: 59 ± 7 s
post-injection latency for onset of tonic digit splaying [15, 17]: 59 ± 6 s
post-injection latency for onset of tonic forelimb extension [15, 17]: 57 ± 5 s
interval from DAC to spike-wave seizure with tonic-clonic convulsions [16]: 2 to 3 min
time to tonic-clonic convulsion with EEG spike-wave discharges post-injection [16]: 3~4 min
